Test results from ChEMBL document CHEMBL1909046, “DrugMatrix in vitro pharmacology data”.

Assays:
[1] = target: 5-hydroxytryptamine receptor 6 (Homo sapiens, UniProt P50406); assay type: cell membranes, HeLa, Membrane; details: hela; further: in other assays of this panel Not Active means under 50% inhibition at 10 µM
D(4) dopamine receptor = target: T1, D(4) dopamine receptor (Homo sapiens, UniProt P21917); test: DRUGMATRIX: Dopamine D4.2 radioligand binding (ligand: [3H] Spiperone); assay type: cell membranes, Membrane; details: cho-k1; Not Active = under 50% inhibition at 10 µM
T1 sequence (P21917 whole entry): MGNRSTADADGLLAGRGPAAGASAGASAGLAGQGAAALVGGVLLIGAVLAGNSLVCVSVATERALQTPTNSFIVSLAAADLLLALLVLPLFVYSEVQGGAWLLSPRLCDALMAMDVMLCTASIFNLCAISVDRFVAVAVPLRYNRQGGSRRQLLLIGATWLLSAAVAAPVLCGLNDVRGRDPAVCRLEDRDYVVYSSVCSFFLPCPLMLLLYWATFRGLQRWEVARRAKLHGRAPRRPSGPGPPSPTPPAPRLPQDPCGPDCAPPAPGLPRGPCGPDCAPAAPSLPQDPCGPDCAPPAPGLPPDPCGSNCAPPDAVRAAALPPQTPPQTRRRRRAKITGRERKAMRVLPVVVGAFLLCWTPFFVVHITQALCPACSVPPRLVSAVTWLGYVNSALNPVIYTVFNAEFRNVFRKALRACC

[2] = target: Beta-2 adrenergic receptor (Homo sapiens, UniProt P07550); test: DRUGMATRIX: Adrenergic beta2 radioligand binding (ligand: [3H] CGP-12177); assay type: cell membranes, Membrane; details: cho; Not Active = under 50% inhibition at 10 µM
D(3) dopamine receptor = D(3) dopamine receptor (Homo sapiens, UniProt P35462); test: DRUGMATRIX: Dopamine D3 radioligand binding (ligand: [3H] Spiperone); assay type: cell membranes, CHO, Membrane; details: cho
D(3) dopamine receptor, sequence (P35462 whole entry): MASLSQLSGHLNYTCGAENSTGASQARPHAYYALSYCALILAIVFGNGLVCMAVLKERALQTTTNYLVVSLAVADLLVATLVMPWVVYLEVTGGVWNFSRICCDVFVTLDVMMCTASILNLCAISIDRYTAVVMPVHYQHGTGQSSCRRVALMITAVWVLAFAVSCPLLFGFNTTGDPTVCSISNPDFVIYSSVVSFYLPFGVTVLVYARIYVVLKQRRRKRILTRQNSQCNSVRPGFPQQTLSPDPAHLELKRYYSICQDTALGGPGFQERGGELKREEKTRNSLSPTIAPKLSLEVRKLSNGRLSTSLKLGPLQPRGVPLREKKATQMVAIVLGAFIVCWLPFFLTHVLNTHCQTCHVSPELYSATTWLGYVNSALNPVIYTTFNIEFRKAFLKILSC

Endothelin-1 receptor = target: T2, Endothelin-1 receptor (Homo sapiens, UniProt P25101); assay type: cell membranes, Membrane; details: cho-k1; further: in other assays of this panel Not Active means under 50% inhibition at 10 µM
T2 sequence (P25101 whole entry): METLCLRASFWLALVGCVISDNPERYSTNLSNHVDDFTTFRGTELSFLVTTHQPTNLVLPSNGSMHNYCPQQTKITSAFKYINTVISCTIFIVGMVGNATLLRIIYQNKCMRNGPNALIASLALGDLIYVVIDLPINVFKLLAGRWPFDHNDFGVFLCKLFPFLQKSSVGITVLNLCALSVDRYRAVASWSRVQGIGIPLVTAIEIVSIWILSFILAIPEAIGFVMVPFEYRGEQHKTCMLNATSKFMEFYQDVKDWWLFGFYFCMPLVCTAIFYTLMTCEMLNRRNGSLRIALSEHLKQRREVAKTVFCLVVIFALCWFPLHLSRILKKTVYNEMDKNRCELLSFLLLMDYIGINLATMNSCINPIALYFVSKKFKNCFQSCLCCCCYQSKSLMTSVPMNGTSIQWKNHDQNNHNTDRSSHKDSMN

[3] = target: Beta-3 adrenergic receptor (Homo sapiens, UniProt P13945); test: DRUGMATRIX: Adrenergic beta3 radioligand binding (ligand: [125I] Cyanopindolol); assay type: cell membranes, Membrane; details: hek293; Not Active = under 50% inhibition at 10 µM
Beta-3 adrenergic receptor, sequence (P13945 whole entry): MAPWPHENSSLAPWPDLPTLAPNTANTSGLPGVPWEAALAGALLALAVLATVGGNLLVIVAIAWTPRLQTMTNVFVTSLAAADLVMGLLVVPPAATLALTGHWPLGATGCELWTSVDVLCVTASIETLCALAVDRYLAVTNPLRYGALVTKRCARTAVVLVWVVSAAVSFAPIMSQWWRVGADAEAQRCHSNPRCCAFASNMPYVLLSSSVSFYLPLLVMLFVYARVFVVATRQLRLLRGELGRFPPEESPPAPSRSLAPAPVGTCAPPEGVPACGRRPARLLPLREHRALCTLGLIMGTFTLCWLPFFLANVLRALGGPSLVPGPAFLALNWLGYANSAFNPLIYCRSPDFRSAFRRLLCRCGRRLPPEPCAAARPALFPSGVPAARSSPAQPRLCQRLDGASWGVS

D(1A) dopamine receptor = D(1A) dopamine receptor (Homo sapiens, UniProt P21728); test: DRUGMATRIX: Dopamine D1 radioligand binding (ligand: [3H] SCH-23390); assay type: cell membranes, Membrane; details: cho; Not Active = under 50% inhibition at 10 µM
D(1A) dopamine receptor, sequence (P21728 whole entry): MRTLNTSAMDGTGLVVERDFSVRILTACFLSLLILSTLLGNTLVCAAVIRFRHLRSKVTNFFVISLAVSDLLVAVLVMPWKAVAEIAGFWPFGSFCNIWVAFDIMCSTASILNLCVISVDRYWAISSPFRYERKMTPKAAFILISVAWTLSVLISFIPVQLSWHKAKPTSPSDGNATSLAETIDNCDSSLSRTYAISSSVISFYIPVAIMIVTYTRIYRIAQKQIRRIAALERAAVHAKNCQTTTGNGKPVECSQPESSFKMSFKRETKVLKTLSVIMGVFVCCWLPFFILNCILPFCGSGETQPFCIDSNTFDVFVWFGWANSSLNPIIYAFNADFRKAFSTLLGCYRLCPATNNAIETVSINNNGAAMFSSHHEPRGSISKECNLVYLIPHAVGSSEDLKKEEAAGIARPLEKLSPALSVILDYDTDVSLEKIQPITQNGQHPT

5-hydroxytryptamine receptor 6, sequence (P50406 whole entry): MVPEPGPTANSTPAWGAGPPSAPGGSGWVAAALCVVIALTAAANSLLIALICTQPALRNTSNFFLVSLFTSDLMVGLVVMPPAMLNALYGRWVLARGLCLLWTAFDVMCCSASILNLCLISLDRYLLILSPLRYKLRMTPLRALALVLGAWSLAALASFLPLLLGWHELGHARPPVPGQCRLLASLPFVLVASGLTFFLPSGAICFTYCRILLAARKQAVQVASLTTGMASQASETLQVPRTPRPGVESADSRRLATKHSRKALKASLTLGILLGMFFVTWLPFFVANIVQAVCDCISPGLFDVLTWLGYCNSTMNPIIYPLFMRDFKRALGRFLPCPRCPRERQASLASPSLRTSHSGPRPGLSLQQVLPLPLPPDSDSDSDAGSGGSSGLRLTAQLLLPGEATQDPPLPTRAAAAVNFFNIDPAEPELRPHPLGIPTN

CC(C)(C(=O)c1cccnc1)c1cccnc1 [METYRAPONE]
Not Active: IC50 [1] | IC50 (D(4) dopamine receptor) | IC50 [2] | IC50 (D(3) dopamine receptor) | IC50 (Endothelin-1 receptor) | IC50 [3] | IC50 (D(1A) dopamine receptor)

Oc1ccc(OCc2ccccc2)cc1 [MONOBENZONE]
Not Active: IC50 [1] | IC50 (D(4) dopamine receptor) | IC50 [2] | IC50 (D(3) dopamine receptor) | IC50 (Endothelin-1 receptor) | IC50 [3] | IC50 (D(1A) dopamine receptor)

CC(C)(Oc1ccc(C2CCCc3ccccc32)cc1)C(=O)O (stereo unspecified) [NAFENOPIN]
Not Active: IC50 [1] | IC50 (D(4) dopamine receptor) | IC50 [2] | IC50 (D(3) dopamine receptor) | IC50 (Endothelin-1 receptor) | IC50 [3] | IC50 (D(1A) dopamine receptor)

COc1ccc2cc([C@H](C)C(=O)O)ccc2c1 [NAPROXEN]
Not Active: IC50 [1] | IC50 (D(4) dopamine receptor) | IC50 [2] | IC50 (D(3) dopamine receptor) | IC50 (Endothelin-1 receptor) | IC50 [3] | IC50 (D(1A) dopamine receptor)

CC(C)[C@H]1CC[C@H](C(=O)N[C@H](Cc2ccccc2)C(=O)O)CC1 [NATEGLINIDE]
Not Active: IC50 [1] | IC50 (D(4) dopamine receptor) | IC50 [2] | IC50 (D(3) dopamine receptor) | IC50 (Endothelin-1 receptor) | IC50 [3] | IC50 (D(1A) dopamine receptor)

CCN[C@@H]1C[C@H](N)[C@@H](O[C@H]2OC(CN)=CC[C@H]2N)[C@H](O)[C@H]1O[C@H]1OC[C@](C)(O)[C@H](NC)[C@H]1O [NETILMICIN]
Not Active: IC50 [1] | IC50 (D(4) dopamine receptor) | IC50 [2] | IC50 (D(3) dopamine receptor) | IC50 (Endothelin-1 receptor) | IC50 [3] | IC50 (D(1A) dopamine receptor)

COC(=O)C1=C(C)NC(C)=C(C(=O)OCC(C)C)C1c1ccccc1[N+](=O)[O-] (stereo unspecified) [NISOLDIPINE]
Not Active: IC50 [1] | IC50 (D(4) dopamine receptor) | IC50 [2] | IC50 (D(3) dopamine receptor) | IC50 (Endothelin-1 receptor) | IC50 [3] | IC50 (D(1A) dopamine receptor)

CCOC(=O)C1=C(C)NC(C)=C(C(=O)OC)C1c1cccc([N+](=O)[O-])c1 (stereo unspecified) [NITRENDIPINE]
Not Active: IC50 [1] | IC50 (D(4) dopamine receptor) | IC50 [2] | IC50 (D(3) dopamine receptor) | IC50 (Endothelin-1 receptor) | IC50 [3] | IC50 (D(1A) dopamine receptor)

C#C[C@]1(OC(C)=O)CC[C@H]2[C@@H]3CCC4=CC(=O)CC[C@@H]4[C@H]3CC[C@@]21C [NORETHINDRONE ACETATE]
Not Active: IC50 [1] | IC50 (D(4) dopamine receptor) | IC50 [2] | IC50 (D(3) dopamine receptor) | IC50 (Endothelin-1 receptor) | IC50 [3] | IC50 (D(1A) dopamine receptor)

COc1ccc2[nH]c([S+]([O-])Cc3ncc(C)c(OC)c3C)nc2c1 (stereo unspecified) [OMEPRAZOLE]
Not Active: IC50 [1] | IC50 (D(4) dopamine receptor) | IC50 [2] | IC50 (D(3) dopamine receptor) | IC50 (Endothelin-1 receptor) | IC50 [3] | IC50 (D(1A) dopamine receptor)

Cc1nccn1CC1CCc2c(c3ccccc3n2C)C1=O (stereo unspecified) [ONDANSETRON]
Not Active: IC50 [1] | IC50 (D(4) dopamine receptor) | IC50 [2] | IC50 (D(3) dopamine receptor) | IC50 (Endothelin-1 receptor) | IC50 [3] | IC50 (D(1A) dopamine receptor)

CCn1cc(C(=O)O)c(=O)c2cc(F)c(N3CCN(C)CC3)cc21 [PEFLOXACIN]
Not Active: IC50 [1] | IC50 (D(4) dopamine receptor) | IC50 [2] | IC50 (D(3) dopamine receptor) | IC50 (Endothelin-1 receptor) | IC50 [3] | IC50 (D(1A) dopamine receptor)

CCCCOc1ccc(OCCCN2CCOCC2)cc1 [PRAMOXINE]
Not Active: IC50 [1] | IC50 (D(4) dopamine receptor) | IC50 [2] | IC50 (D(3) dopamine receptor) | IC50 (Endothelin-1 receptor) | IC50 [3] | IC50 (D(1A) dopamine receptor)

O=C(C1CCCCC1)N1CC(=O)N2CCc3ccccc3C2C1 (stereo unspecified) [PRAZIQUANTEL]
Not Active: IC50 [1] | IC50 (D(4) dopamine receptor) | IC50 [2] | IC50 (D(3) dopamine receptor) | IC50 (Endothelin-1 receptor) | IC50 [3] | IC50 (D(1A) dopamine receptor)

CCN(CC)CCOC(=O)c1ccc(N)cc1 [PROCAINE]
Not Active: IC50 [1] | IC50 (D(4) dopamine receptor) | IC50 [2] | IC50 (D(3) dopamine receptor) | IC50 (Endothelin-1 receptor) | IC50 [3] | IC50 (D(1A) dopamine receptor)

CCCN(CCC)C(=O)C(CCC(=O)O)NC(=O)c1ccccc1 (stereo unspecified) [PROGLUMIDE]
Not Active: IC50 [1] | IC50 (D(4) dopamine receptor) | IC50 [2] | IC50 (D(3) dopamine receptor) | IC50 (Endothelin-1 receptor) | IC50 [3] | IC50 (D(1A) dopamine receptor)

NC(=O)c1cnccn1 [PYRAZINAMIDE]
Not Active: IC50 [1] | IC50 (D(4) dopamine receptor) | IC50 [2] | IC50 (D(3) dopamine receptor) | IC50 (Endothelin-1 receptor) | IC50 [3] | IC50 (D(1A) dopamine receptor)

OC(CCN1CCCCC1)(c1ccccc1)C1CCCCC1 (stereo unspecified) [TRIHEXYPHENIDYL]
Not Active: IC50 [1] | IC50 (D(4) dopamine receptor) | IC50 [2] | IC50 (D(3) dopamine receptor) | IC50 (Endothelin-1 receptor) | IC50 [3] | IC50 (D(1A) dopamine receptor)

Cc1cc2cc3c(C)cc(=O)oc3c(C)c2o1 [TRIOXSALEN]
Not Active: IC50 [1] | IC50 (D(4) dopamine receptor) | IC50 [2] | IC50 (D(3) dopamine receptor) | IC50 (Endothelin-1 receptor) | IC50 [3] | IC50 (D(1A) dopamine receptor)

CCCC(CCC)C(=O)O [VALPROIC ACID]
Not Active: IC50 [1] | IC50 (D(4) dopamine receptor) | IC50 [2] | IC50 (D(3) dopamine receptor) | IC50 (Endothelin-1 receptor) | IC50 [3] | IC50 (D(1A) dopamine receptor)

CCC1=C[C@@H]2CN(C1)Cc1c([nH]c3ccccc13)[C@@](C(=O)OC)(c1cc3c(cc1OC)N(C)[C@H]1[C@@](O)(C(=O)OC)[C@H](OC(C)=O)[C@]4(CC)C=CCN5CC[C@]31[C@@H]54)C2 [VINORELBINE]
Not Active: IC50 [1] | IC50 (D(4) dopamine receptor) | IC50 [2] | IC50 (D(3) dopamine receptor) | IC50 (Endothelin-1 receptor) | IC50 [3] | IC50 (D(1A) dopamine receptor)

CADMIUM DICHLORIDE
Not Active: IC50 [1] | Ki [1] | IC50 (D(4) dopamine receptor) | Ki (D(4) dopamine receptor) | IC50 [2] | Ki [2] | IC50 (D(3) dopamine receptor) | Ki (D(3) dopamine receptor) | IC50 (Endothelin-1 receptor) | Ki (Endothelin-1 receptor) | IC50 [3] | Ki [3] | IC50 (D(1A) dopamine receptor) | Ki (D(1A) dopamine receptor)
